Assay results as given in PMC6412019, “Discovery of NV-5138, the first selective Brain mTORC1 activator” (Scientific Reports, 2019).

Experiments:
[1] = target: T1, Sestrin2/GATOR2 interaction (Homo sapiens, UniProt P58004); assay: Sestrin2/GATOR2 interaction in intact flag-WDR24 HEK-293T cells; type: cell-based; details: leucine-starved 50 min, compound 10 min
T1 construct: expressed in transfected cells; host or cells: HEK-293T stably expressing Flag-WDR24; Sestrin2 and the other GATOR2 subunits endogenous
T1 sequence (P58004 1-480): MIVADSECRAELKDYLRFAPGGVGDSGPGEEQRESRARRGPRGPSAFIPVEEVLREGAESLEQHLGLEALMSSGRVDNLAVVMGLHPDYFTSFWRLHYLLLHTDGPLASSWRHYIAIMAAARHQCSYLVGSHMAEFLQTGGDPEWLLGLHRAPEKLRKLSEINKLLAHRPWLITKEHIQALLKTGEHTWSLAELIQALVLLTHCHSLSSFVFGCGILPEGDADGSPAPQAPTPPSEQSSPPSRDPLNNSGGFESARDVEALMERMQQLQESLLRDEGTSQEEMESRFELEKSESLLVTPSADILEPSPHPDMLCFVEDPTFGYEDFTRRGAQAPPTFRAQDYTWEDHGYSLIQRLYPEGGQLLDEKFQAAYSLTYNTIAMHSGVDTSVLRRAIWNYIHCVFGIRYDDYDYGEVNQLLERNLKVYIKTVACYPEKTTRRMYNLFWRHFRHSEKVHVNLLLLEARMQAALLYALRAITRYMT
Description: (§1) Expression of flag-WDR24 allows for immunoprecipitation of the Sestrin2/GATOR2 complex from amino acid-starved cells with an anti-flag antibody. […] Finally, to determine whether Sestrins and the GATOR pathway are required for NV-5138 activity, HEK-293T cells null for all three Sestrin isoforms or the GATOR1 component Nprl3 were obtained.
All cell lines were cultured in DMEM supplemented with 10% FBS and maintained at 37 °C and 5% CO2. HEK-293T cells stably expressing Flag-WDR24 was generated as previously described. […] Details of reagent used for cell culture can be found in Supplementary Information.
(§2) Cell lysates were prepared as previously described. Lysates were cleared by centrifugation at 13,200 rpm at 4 °C for 8 min. For anti-FLAG IPs, the FLAG-M2 affinity gel was added to approximately 2 mg of lysates and incubated with rotation for 3 h at 4 °C. Following IP, the beads were washed one time with Triton wash buffer containing 500 mM NaCl. […] After compound incubation, IPs were collected by centrifugation. Immunoprecipitated proteins were denatured and, resolved by SDS-PAGE. Membranes were imaged using the LI-COR imaging system. Reagents and antibodies used are listed in Supplementary Information.

[2] = tested on: Synapsin1, GluR1 and PSD95; assay: Synaptic proteins in rat prefrontal cortex synaptoneurosomes (immunoblot); type: in vivo; details: 24 h after single 160 mg/kg PO
Description: We investigated the activation of mTORC1 in the brain further by determining the time course of mTORC1 activation following a single administration of NV-5138. […] The decrease in mTORC1 signaling in the NV-5138 treated group 24 h following administration while significant was not consistently observed. […] It should be noted that while the activation of mTORC1 in the prefrontal cortex correlated with compound exposure, the increased expression of synaptic proteins was observed well after compound levels have dropped and mTORC1 activity was back to baseline/vehicle levels.
After compound administration, animals were sacrificed by decapitation using a guillotine, immediately Specific regions of the brain were quickly microdissected, tissues collected, and flash frozen in liquid nitrogen. Peripheral tissues and all brain were homogenized using MP homogenizer in Lysis Buffer (Cell lysis buffer: 1% Triton X-100, 50 mM HEPES pH 7.4, 100 mM NaCl, 2 mM EDTA, 10 mM Beta-glycerophosphate, 10 mM Sodium pyrophosphate, and 1 protease inhibitor) at 4 °C. Synaptic proteins and mTORC1 analyses in each brain region were conducted on crude synaptoneurosome preparations as previously described. Equal amounts of total protein from each sample were denatured and, resolved by SDS-PAGE. Membranes were imaged using the LI-COR imaging system. […]

[3] = tested on: NMDA receptors expressed in Xenopus laevis oocytes; assay: Two electrode voltage-clamp electrophysiology of NMDA receptors in oocytes; type: cell-based; details: 300 µM final concentration; data not shown
Description: (§3) While mTORC1 activation by NV-5138 appears dependent upon an intact Sestrins/GATOR2 pathway and not upon protein incorporation or transamination by BCAT, NV-5138 was tested for off-target activity in the Eurofins/Cerep panel of over 100 potential targets. The selectivity panel included AMPA, kainate and NMDA receptor isoforms (Supplementary Table 2a–c). […] As observed in the Eurofins/Cerep panel, there was no effect of NV-5138 at 300 µM final concentration (data not shown).

[4] = tested on: panel of 107 adverse drug effect targets; assay: Eurofins/Cerep off-target selectivity panel; details: up to 300 µM; threshold >50% binding/response; incl. AMPA, kainate and NMDA receptor isoforms
Description: as §3
NV-5138 was tested in duplicate at a concentration of 300 µM for potential interaction with a panel of 107 adverse drug effect targets including 21 transporters, receptors, ion channels and enzymes expressed in the CNS (Eurofins Pharma Discovery Services). The threshold to exclude a significant interaction was set as a binding/response of >50%.

mTORC1 = mTORC1 activation in rat peripheral tissues after oral dosing (phosphorylated S6 S240/244 immunoblot); type: in vivo; details: 1 h after single oral dose; NV-5138 160 mg/kg, leucine 500 mg/kg
Description: After compound administration, animals were sacrificed by decapitation using a guillotine, immediately Specific regions of the brain were quickly microdissected, tissues collected, and flash frozen in liquid nitrogen. Peripheral tissues and all brain were homogenized using MP homogenizer in Lysis Buffer (Cell lysis buffer: 1% Triton X-100, 50 mM HEPES pH 7.4, 100 mM NaCl, 2 mM EDTA, 10 mM Beta-glycerophosphate, 10 mM Sodium pyrophosphate, and 1 protease inhibitor) at 4 °C. Synaptic proteins and mTORC1 analyses in each brain region were conducted on crude synaptoneurosome preparations as previously described. Equal amounts of total protein from each sample were denatured and, resolved by SDS-PAGE. Membranes were imaged using the LI-COR imaging system. Proteins levels are normalized to tubulin or GAPDH levels and further normalized to vehicle treated rats for each tissue. Antibodies used are listed in Supplementary Information.

[5] = Pharmacokinetic analysis in rats; type: in vivo, rat
Description: To determine oral bioavailability, male SD rats were dosed I.V at 1 mg/kg and PO at 5 mg/kg with NV-5138 in 0.5% MC/0. 1% Tween80 (n = 3 per time point per group). Rats were fasted overnight for PO group and were given free access to food and water for IV group. After dosing, tail-vein blood was collected at the indicated time points into K2EDTA tubes and centrifuged at 2,000 g for 5 min to collect plasma. To measure levels of NV-5138 in the brain and plasma, rats were dosed PO at 160 mg/kg (n = 5), sacrificed 1 h after dosing via decapitation and trunk blood and one hemisphere of the brain was collected. Plasma was combined with acetonitrile containing pregabalin as an internal standard and centrifuged, brain and heart samples were homogenized directly into acetonitrile. Levels of NV-5138 were quantified via LC-MS/MS. WinNonlin V 6.2 statistics software (Pharsight Corporation, California, USA) was used to generate pharmacokinetics parameters using non-compartmental model.

[6] = target: T1, Sestrin2/GATOR2 interaction; assay: Cell-free Sesn2/WDR24 (GATOR2) interaction assay on immunoprecipitates; type: biochemical; details: added to immunoprecipitated complexes from amino acid-starved cells for 10 min
Description: as §1, §2

[7] = cited from earlier work

Row | SMILES | disruption of GATOR2-bound Sestrin2 in intact cells [1] | synaptic proteins Synapsin1, GluR1 and PSD95 versus vehicle [2] | functional inhibition of maximally-activated NMDA receptors [3] | off-target activity in selectivity panel [4] | mTORC1 activation in kidney, heart, tibialis anterior muscle, testes, epididymal fat (mTORC1) | mTORC1 activation in liver (mTORC1) | mTORC1 activation in lung, spleen, gastrocnemius muscle, eye, thymus (mTORC1) | bioavailability ([5]; male, SD, rat, plasma, oral, 5 mg/kg, male SD rats, IV 1 mg/kg and PO 5 mg/kg) | half-life ([5]; male, SD, rat, plasma, other: intravenous and oral, rats, intravenous and oral dosing, read-out: elimination half-life in plasma (converted)) | brain versus plasma exposure ([5]; rats, 160 mg/kg PO, 160 mg/kg) | disruption of Sestrin2/GATOR2 interaction, cell-free [6] | cerebrospinal fluid (CSF) levels as fraction of plasma concentrations [7]
1 | CC(C)(C[C@H](N)C(=O)O)C(F)F [NV-5138, (S)-2-amino-5,5-difluoro-4,4-dimethylpentanoic acid] | resulted in disruption of GATOR2-bound Sestrin2 | significant increase | no effect | no activity against any target | significant activation | trend | little to no activation | 100% | ~3 h | brain and plasma concentrations of NV-5138 are equal | rapidly disrupts the Sestrin2/GATOR2 interaction in a dose-dependent manner | –
2 | CC(C)C[C@H](N)C(=O)O [Leucine, L-leucine, reference compound] | – | – | – | – | significant activation | significant activation | little to no activation | – | – | – | – | 5–10%
